{"source": "patent US20080096926A1", "about": "“Treatment Of Cognitive Impairment Using A Selective Dopamine D1 Receptor Agonist” (DrugAbuse Sciences SAS, priority 2002, published 2008)", "origin": "cited, not measured here", "key": {"MPTP treated monkeys": {"tested_on": "MPTP treated monkeys", "settings": "for anti-parkinsonian activity: MPTP treated monkeys"}, "[1]": {"tested_on": "young control monkeys and aged monkeys"}, "[2]": {"tested_on": "non-human primate model of cognitive impairment"}, "monkeys": {"tested_on": "monkeys", "settings": "0.1, 0.3 and 1 mg/kg/day IM"}, "[3]": {"tested_on": "prefrontal cortex of rhesus monkeys", "settings": "local injections into the prefrontal cortex of rhesus monkeys"}, "healthy volunteers": {"tested_on": "healthy volunteers", "settings": "0.1 mg, 32 healthy volunteers"}}, "note": "Where a name gives a salt, the structure may show the parent alone.", "data": [{"compound": "Oc1cc2c(cc1O)[C@H]1c3ccccc3CN[C@@H]1CC2", "note": "(racemic) [dihydrexidine]", "values": [{"measurement": "anti-parkinsonian activity", "setting": "MPTP treated monkeys", "value": "attenuates these parkinsonian signs while increasing eye blink rate"}, {"measurement": "memory performance in monkeys following administration of D1 agonists", "setting": "[1]", "value": "Improved memory performance"}, {"measurement": "memory performance", "setting": "[1]; young control monkeys and aged monkeys", "value": "improves memory performance"}]}, {"compound": "CCCc1cc2c(s1)CN[C@@H]1CCc3cc(OC(C)=O)c(OC(C)=O)cc3[C@@H]21", "note": "[DAS-431, (−)-trans 9,10-diacetyloxy-2-propyl-4,5,5a,6,7,11b-hexahydro-3-thia-5-azacyclopent-1-ena[c] phenanthrene hydrochloride]", "values": [{"measurement": "effect following repeated administration", "setting": "MPTP-lesioned macaques; other studies (Michaelides et al. 1995)", "value": "potent effect is maintained"}, {"measurement": "efficacy over time", "setting": "MPTP-lesioned macaques; three-time daily 0.32 mg/kg s.c. for thirty days", "value": "no difference over time"}, {"measurement": "antiparkinsonian activity (reported for D1 agonists)", "setting": "MPTP treated monkeys; model not stated", "value": "antiparkinsonian activity"}, {"measurement": "dose relationship of adverse events", "setting": "1 mg to 40 mg IV per day", "value": "no clear dose relationship with the exception of nausea and vomiting in the cocaine abuser population and of dizziness in all subjects"}, {"measurement": "tolerance to side effects", "setting": "Parkinson's disease population", "value": "rapid tolerance to nausea and vomiting"}, {"measurement": "EKG", "setting": "in vivo", "value": "Transitory EKG changes"}, {"measurement": "severity of adverse events", "setting": "in vivo", "value": "mild or moderate"}, {"measurement": "adverse events", "setting": "previous treatment protocols", "value": "high incidence of dopamine related symptoms such as nausea, vomiting, hypotension, postural hypotension, dizziness, injection and application site reactions"}, {"measurement": "reversal of haloperidol-induced working memory impairment", "setting": "[2]; 0.01 μg/kg to 0.1 μg/kg IM, five blocks of five consecutive days", "value": "reverse the haloperidol effects"}, {"measurement": "persistence of treatment effect after the final treatment", "setting": "[2]; in some monkeys", "value": "more than a year"}, {"measurement": "tolerance", "setting": "monkeys", "value": "tolerance may have developed after 3 days of treatment"}]}, {"compound": "Cc1nc2n(c(=O)c1CCN1CCC(c3noc4cc(F)ccc34)CC1)CCCC2", "note": "[Risperidone, risperidone]", "values": [{"measurement": "executive functioning", "setting": "schizophrenia; schizophrenia", "value": "positive effects"}, {"measurement": "verbal learning and memory", "setting": "schizophrenia; schizophrenia", "value": "inconsistent results"}, {"measurement": "working memory", "setting": "schizophrenia; schizophrenia", "value": "positive effects"}]}, {"compound": "CN1CCc2cc(Cl)c(O)cc2[C@H]2c3ccccc3CC[C@@H]21", "note": "[SCH39166]", "values": [{"measurement": "performance on working memory tasks", "setting": "[3]", "value": "induce errors and increase latency of performance"}]}, {"compound": "Oc1cc2c(cc1O)C(c1ccccc1)CNCC2", "note": "(stereo not drawn) [SKF 38393]", "values": [{"measurement": "anti-parkinsonian activity", "setting": "MPTP treated monkeys", "value": "without anti-parkinsonian activity"}, {"measurement": "food intake", "setting": "rats", "value": "decrease food intake"}, {"measurement": "memory performance in monkeys following administration of D1 agonists", "setting": "[1]", "value": "Improved memory performance"}]}, {"compound": "C=CCN1CCc2c(cc(O)c(O)c2Cl)C(c2ccccc2)C1", "note": "(stereo not drawn) [SKF 82958]", "values": [{"measurement": "anti-parkinsonian activity", "setting": "MPTP treated monkeys", "value": "increase locomotor activity and improve parkinsonian score"}]}, {"compound": "CN1CCN(C2=Nc3cc(Cl)ccc3Nc3ccccc32)CC1", "note": "[clozapine]", "values": [{"measurement": "severe side effects", "setting": "schizophrenia; in vivo", "value": "agranulocytosis"}]}, {"compound": "CCCN1C[C@H](CSC)C[C@@H]2c3cccc4[nH]cc(c34)C[C@H]21", "note": "[pergolide]", "values": [{"measurement": "effect on spatial memory", "setting": "healthy volunteers", "value": "positive effect"}]}]}
